Reference: patent US9428771B2, “Method for the oxidation of organic compounds” (STUDIENGE[…] MBH, priority 2010, dated 2016)
Where two headings read alike, the source gives them in different places.

Experiments:
P450 BM3 [1] = molecular target: T1, P450 BM3 (Priestia megaterium, UniProt P14779); test: P450 BM3 catalysed oxidation of methane to methanol in the presence of an additive; type: biochemical, Bacillus megaterium; parameters: polyhistidine (His6) tag from vector pETM11 (N); made in house; host or cells: E. coli BL21 (DE3) GOLD; conditions: 1 mM additive, 25° C; for Total product formed (methanol): 7% methane, 8% O2, 85% N2, 10 bar; for TON: methane, 10 bar
Protocol: (§1) The hydroxylation of gaseous alkanes was carried out in a self-constructed low-pressure reactor. […] Subsequently the reaction vessels were linked to a gas bottle via a multichannel gas feed. The following gas mixtures were used to flush the apparatus and to apply a pressure of 10 bar to the reaction solution: a) 7% methane, 8% oxygen, 85% nitrogen, b) 7% propane, 8% oxygen, 85% nitrogen or c) 10% butane, 8% oxygen, 82% nitrogen. The reaction mixture was stirred at 100 rpm with a crosshead-shaped magnetic stirrer (VWR). At the end of the reaction the pressure was carefully released from the reaction vessels, a 1 ml aliquot was centrifuged for 10 min at 13 000 rpm and analyzed by HPLC. […] Each experiment comprised at least one positive control for the enzyme activity, in which dodecanoic acid was added as additive (1 mM final concentration, from a 100 mM stock in DMSO), while the enzyme was exposed to 10 bar of the gaseous alkane mixture. The reaction of dodecanoic acid was analyzed using decanoic acid (1 mM final concentration, from a 100 mM stock in DMSO) as standard. The samples were extracted for the GC analysis with 0.5 volume of MTBE and were analyzed by GC.
30 min isotherm, 60-240° C. at 16° C./min, 240° C. for 5 min isotherm.
The quantification of propanol and butanol was carried out using the RID-10A detector, while the quantification of methanol was carried out using the RID-10A or, preferably, the ED 50 detector. The ED 50 detector was operated in integrated, amperometric detection mode with an Ag reference electrode in the range of 300 nC. The detection was carried out in waveform as follows: […]

P450 BM3 [2] = molecular target: T1, P450 BM3; test: P450 BM3 catalysed oxidation of butane and propane in the presence of additives; type: biochemical, Bacillus megaterium; parameters: polyhistidine (His6) tag from vector pETM11 (N); made in house; host or cells: E. coli BL21 (DE3) GOLD; conditions: 1 mM additive, 25° C; for % ee: Butane oxidation product; for TON: 10 bar
Protocol: as §1
The quantification of propanol and butanol was carried out using the RID-10A detector, while the quantification of methanol was carried out using the RID-10A or, preferably, the ED 50 detector. The ED 50 detector was operated in integrated, amperometric detection mode with an Ag reference electrode in the range of 300 nC. The detection was carried out in waveform as follows:
The P450 BM3 catalysed oxidation of butane and propane was carried out in the presence or absence of additives 1 under standard conditions as follows: 2.5 ml reaction volume, 5 ml gas volume, 1% DMF, 100 mM KPi, pH 8.0, 10 bar pressure (10% n-butane, 8% O2, 82% N2; 7% propane, 8% O2, 85% N2), propane oxidation: 14.5 h, butane oxidation: 17.5 h., 25° C.

P450 BM3 [3] = molecular target: T1, P450 BM3; conditions: 1 mM additive, 20° C; for TON: mol of product/mol of enzyme; for Regioselectivity: 1 hour
Protocol: For hydroxylating alkanes, for example C6 and C8 alkanes, the substrate was added to the reaction solution from a 160 mM stock in EtOH and was adjusted to a final concentration of 3.2 mM. The solution further comprised 0.1 M glucose (Riedel de Haen), 1 mM NADP^+ (Codexis, Jülich, Germany), 1 U/ml GDH (#001, Codexis, Jülich, Germany), 1 mM additive (unless otherwise stated), BM3-WT enzyme and 100 mM KPi, pH 8.0 with a total volume of 20 ml. The reactions were shaken for 1 hour at 20° C. in a 50 ml Falcon reaction tube in a bacterial incubator at 130 rpm. After one hour, three aliquots were removed, each of 1 ml volume, and acidified with 0.1 ml of 10% HCl. Subsequently 1 mM 1-pentanol was added as internal standard. The mixture was extracted with half a volume of MTBE and analyzed by gas chromatography.
Hydroxylation products were analyzed by GC using the following instruments and under the following conditions: HP6890+7683HP (Hewlett Packard, USA); column: 15 m Stabilwax phase, internal diameter 0.25 mm, film thickness 0.5 μm, (J&W, Germany); pressure: 0.8 bar H2; split rate 60; injector: 220° C.; temperature gradient: 40° C. 4 min isotherm, 40-60° C. at 4° C./min, 60° C.-250° C. at 15° C./min. FID detector. The product peaks were quantified as a ratio to the 1 mM 1-pentanol peak using the following, previously determined, correction factors: 2-octanol: 2.36; 3-,4-octanol: 2.23; 2-,3-hexanol:1.218; 3-Me-3-PeOH,3-Me-2-PeOH: 1.49; 3,3-Di-Me-2-BuOH: 1.43; 2,3-Di-Me-BuOH: 1.317.
Reaction conditions: 3.2 mM alkane; 1% v/v DMF; 2% v/v ethanol; 100 mM glucose, 1 mM NADP^+, 1 U/ml GDH, 1 mM additive, 100 mM KPi, pH 8.0, total volume 20 ml; 1 hour; 20° C. The P450-BM3 concentration depended on the compound used 2: 1 μM, 3: 2.9 μM, 4: 2.9 μM, 5: 1.1 μM, 6: 2.7 μM)
The turnover numbers (TON) were calculated (mol of product/mol of enzyme) for the enzyme at the end of the reaction.

[4] = Butane (10% n-butane, 8% O2, 82% N2, 10 bar), 2.3 μM enzyme, 17.5 h
[5] = alkane 2 (3.2 mM), 1 μM P450-BM3, 1 hour
[6] = alkane 4 (3.2 mM), 2.9 μM P450-BM3, 1 hour
[7] = alkane 5 (3.2 mM), 1.1 μM P450-BM3, 1 hour
[8] = Propane (7% propane, 8% O2, 85% N2, 10 bar), 2.9 μM enzyme, 14.5 h
[9] = alkane 3 (3.2 mM), 2.9 μM P450-BM3, 1 hour
[10] = alkane 6 (3.2 mM), 2.7 μM P450-BM3, 1 hour

T1 sequence (P14779 whole entry): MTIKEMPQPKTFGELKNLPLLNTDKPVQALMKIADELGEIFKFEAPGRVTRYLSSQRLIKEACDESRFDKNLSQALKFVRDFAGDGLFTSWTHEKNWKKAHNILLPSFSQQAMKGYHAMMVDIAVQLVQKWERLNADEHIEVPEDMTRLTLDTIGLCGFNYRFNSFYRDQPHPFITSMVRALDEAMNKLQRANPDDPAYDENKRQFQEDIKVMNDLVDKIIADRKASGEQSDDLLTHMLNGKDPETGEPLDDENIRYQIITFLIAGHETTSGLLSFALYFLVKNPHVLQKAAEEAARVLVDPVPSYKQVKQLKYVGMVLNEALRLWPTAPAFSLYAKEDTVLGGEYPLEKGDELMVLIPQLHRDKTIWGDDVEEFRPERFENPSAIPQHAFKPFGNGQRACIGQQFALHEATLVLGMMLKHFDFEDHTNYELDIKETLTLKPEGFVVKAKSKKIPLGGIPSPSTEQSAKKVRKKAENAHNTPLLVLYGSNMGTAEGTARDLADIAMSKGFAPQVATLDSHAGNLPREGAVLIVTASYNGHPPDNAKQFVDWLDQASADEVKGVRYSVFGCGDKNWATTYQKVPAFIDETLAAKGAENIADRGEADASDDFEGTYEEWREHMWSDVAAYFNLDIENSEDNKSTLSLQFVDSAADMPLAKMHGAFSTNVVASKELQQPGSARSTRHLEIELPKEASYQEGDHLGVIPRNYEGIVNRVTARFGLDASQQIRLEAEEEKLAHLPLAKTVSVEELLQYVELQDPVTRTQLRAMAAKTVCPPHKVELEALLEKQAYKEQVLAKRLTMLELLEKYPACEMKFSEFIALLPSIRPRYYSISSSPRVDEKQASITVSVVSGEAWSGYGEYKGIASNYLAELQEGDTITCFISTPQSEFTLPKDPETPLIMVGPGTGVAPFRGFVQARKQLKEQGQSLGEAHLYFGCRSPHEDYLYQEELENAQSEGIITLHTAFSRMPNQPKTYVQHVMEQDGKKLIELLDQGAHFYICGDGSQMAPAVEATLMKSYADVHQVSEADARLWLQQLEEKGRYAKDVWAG

SMILES | Total product formed (P450 BM3 [2]; [4]) [mM] | % ee (P450 BM3 [2]; 17.5 h) [%] | TON (P450 BM3 [2]; Butane, 2.3 μM enzyme, 17.5 h) | Total product formed (methanol) (P450 BM3 [1]; 1.3 μM enzyme, 21 h) [mM] | TON (P450 BM3 [1]; 1.3 μM enzyme, 21 h) | further results
OCCCC(F)(F)C(F)(F)C(F)(F)C(F)(F)C(F)(F)C(F)(F)C(F)(F)C(F)(F)F [1H, 1H, 2H, 2H, 3H, 3H-Perfluoroundecano, 1H, 1H, 1H, 2H, 2H, 3H, 3H-perfluoroundecanol] |  |  |  |  |  | Total product formed (methanol) (P450 BM3 [1]; 19 h): 0.84 mM; TON (P450 BM3 [1]; 19 h): 630
OCCC(F)(F)C(F)(F)C(F)(F)C(F)(F)C(F)(F)C(F)(F)F [1H, 1H, 2H, 2H-perfluorooctan-1-ol] |  |  |  |  |  | Total product formed (methanol) (P450 BM3 [1]; 19 h): 2.53 mM; TON (P450 BM3 [1]; 19 h): 1889
OCCCCCCC(F)(F)C(F)(F)F [6(perfluoroethyl)hexanol, 6-(perfluoroethyl)hexanol] |  |  |  |  |  | Total product formed (methanol) (P450 BM3 [1]; 19 h): 2.69 mM; TON (P450 BM3 [1]; 19 h): 2006
O=C(O)C(F)(F)F [Additive 1a] | 1.1 | 32 | 469 |  |  | 
O=C(O)C(F)(F)C(F)(F)C(F)(F)C(F)(F)C(F)(F)C(F)(F)F [Additive 1b, perfluoroheptanoic acid] | 8.4 | 22 | 3632 |  |  | 
O=C(O)C(F)(F)C(F)(F)C(F)(F)C(F)(F)C(F)(F)C(F)(F)C(F)(F)C(F)(F)F [Additive 1c, perfluorononanoic acid] | 2.0 | 23 | 879 | 2.75 | 2053 | Total product formed (P450 BM3 [3]; [5]): 1.16 mM; TON (P450 BM3 [3]; [5]): 1184; Total product formed (P450 BM3 [3]; [6]): 1.36 mM; TON (P450 BM3 [3]; [6]): 476; Total product formed (P450 BM3 [3]; [7]): 0.96 mM; TON (P450 BM3 [3]; [7]): 892; Regioselectivity (P450 BM3 [3]; alkane 5 (3.2 mM), cell reads: only 2-Hydroxy-3,3-dimethylbutane): only 2-Hydroxy-3,3-
O=C(O)C(F)(F)C(F)(F)C(F)(F)C(F)(F)C(F)(F)C(F)(F)C(F)(F)C(F)(F)C(F)(F)F [Additive 1d, perfluorodecanoic acid] | 3.9 | 20 | 1699 | 3.31 | 2472 | 
O=C(O)C(F)(F)C(F)(F)C(F)(F)C(F)(F)C(F)(F)C(F)(F)C(F)(F)C(F)(F)C(F)(F)C(F)(F)F [Additive 1e, perfluoroundecanoic acid] | 5.8 | 19 | 2519 | 1.81 | 1353 | Total product formed (P450 BM3 [2]; [8]): 3.0 mM; TON (P450 BM3 [2]; Propane, 2.9 μM enzyme, 14.5 h): 1021; Total product formed (P450 BM3 [3]; [9]): 1.50 mM; TON (P450 BM3 [3]; [9]): 525; Total product formed (P450 BM3 [3]; [10]): 0.19 mM; TON (P450 BM3 [3]; [10]): 3241; Regioselectivity (P450 BM3 [3]; alkane 6 (3.2 mM), cell reads: only 2-Hydroxy-2,3-dimethylbutane): only 2-Hydroxy-2,3-
O=C(O)C(F)(F)C(F)(F)C(F)(F)C(F)(F)C(F)(F)C(F)(F)C(F)(F)C(F)(F)C(F)(F)C(F)(F)C(F)(F)F [Additive 1f, perfluorododecanoic acid] |  |  |  | 1.25 | 933 | Total product formed (P450 BM3 [2]; [8]): 0.67 mM; TON (P450 BM3 [2]; Propane, 2.9 μM enzyme, 14.5 h): 227
O=C(O)C(F)(F)C(F)(F)C(F)(F)C(F)(F)C(F)(F)C(F)(F)C(F)(F)C(F)(F)C(F)(F)C(F)(F)C(F)(F)C(F)(F)F [Additive 1g, perfluorotridecanoic acid] |  |  |  | 0.75 | 560 | 
O=C(O)C(F)(F)C(F)(F)C(F)(F)C(F)(F)C(F)(F)C(F)(F)C(F)(F)C(F)(F)C(F)(F)C(F)(F)C(F)(F)C(F)(F)C(F)(F)F [Additive 1h, perfluorotetradecanoic acid] |  |  |  | 0.28 | 210 | Total product formed (P450 BM3 [2]; [8]): 0.50 mM; TON (P450 BM3 [2]; Propane, 2.9 μM enzyme, 14.5 h): 170
